Assay results published in US12052991B2, “Substituted pyridinyloxybenzenes and salts thereof and use thereof as herbicidal agents” (Bayer Aktiengesellschaft, priority 2018, dated 2024).

Columns and labels:
Format in all cases: in vivo
[1] = test system: Setaria viridis (SETVI); experiment: Herbicidal pre-emergence action, test C (Table C4); details: visual scoring after about 3 weeks, 100% = plants have died, 0% = like control plants
Outline: (§1)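 Sandy loam, doubly sown pots; surface spray pre-emergence; 1280 or 320 g/ha; 0.5% additive; 600 L/ha. Greenhouse, ~3 weeks. Visual % vs untreated.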

[2] = test system: Abutilon theophrasti (ABUTH); experiment: Herbicidal post-emergence action (Table B5); details: rated visually after about 3 weeks, 100% = plants have died, 0% = like control plants
Outline: (§2)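 Weeds grown from seed in sandy loam in the greenhouse were sprayed at the one-leaf stage, 2 to 3 weeks after sowing, with WP or EC formulations in water plus 0.5% additive at 600 L/ha. Rates corresponded to 1280 or 320 g/ha; damage was rated visually versus untreated controls after about 3 weeks.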

[3] = test system: Echinochloa crus-galli (ECHCG); experiment: Herbicidal pre-emergence action, test C (Table C1); details: visual scoring after about 3 weeks, 100% = plants have died, 0% = like control plants
Outline: as §1

[4] = test system: Amaranthus retroflexus (AMARE); experiment: Herbicidal post-emergence action (Table B6); details: visual rating about 3 weeks after treatment, 100% = plants have died, 0% = like control plants
Outline: as §2

[5] = test system: Stellaria media (STEME); experiment: Herbicidal post-emergence action (Table B8); details: visual rating about 3 weeks after treatment, 100% = plants have died, 0% = like control plants
Outline: as §2

[6] = test system: harmful plants ABUTH, AMARE, ECHCG, LOLRI, MATIN, POAAN, SETVI, STEME, ALOMY, DIGSA, KCHSC and VERPE; experiment: Herbicidal post-emergence action, summary of Tables B1-B12; details: application rate of 1280 or 320 g of active ingredient per hectare; summary in words
Outline: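 Greenhouse weeds in sandy loam treated post-emergence at the one-leaf stage, 2–3 weeks after sowing, with WP or EC formulations sprayed with 0.5% additive at 600 L/ha water, 1280 or 320 g/ha. Damage rated visually after about 3 weeks versus untreated controls (0% = like control, 100% = dead).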

[7] = test system: Lolium rigidum (LOLRI); experiment: Herbicidal post-emergence action (Table B2); details: rated visually after about 3 weeks, 100% = plants have died, 0% = like control plants
Outline: as §2

[8] = test system: Amaranthus retroflexus (AMARE); experiment: Herbicidal pre-emergence action, test C (Table C6); details: visual scoring after about 3 weeks, 100% = plants have died, 0% = like control plants
Outline: as §1

[9] = test system: Poa annua (POAAN); experiment: Herbicidal pre-emergence action, test C (Table C3); details: visual scoring after about 3 weeks, 100% = plants have died, 0% = like control plants
Outline: as §1

[10] = test system: Poa annua (POAAN); experiment: Herbicidal post-emergence action (Table B3); details: rated visually after about 3 weeks, 100% = plants have died, 0% = like control plants
Outline: as §2

[11] = test system: harmful plants ABUTH, AMARE, ECHCG, LOLRI, MATIN, POAAN, SETVI, STEME, ALOMY, DIGSA, KCHSC and VERPE; experiment: Herbicidal pre-emergence action (test C), summary of Tables C1-C12; details: application rate of 1280 or 320 g of active ingredient per hectare; summary in words
Outline: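 Pre-emergence pot test in sandy loam: WP or EC formulations were sprayed onto the covering soil with 0.5% additive at 600 L/ha water, at 1280 or 320 g/ha. Plants were kept in the greenhouse, and activity was rated visually about 3 weeks later as % versus untreated controls (100% = dead).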

[12] = test system: Abutilon theophrasti (ABUTH); experiment: Herbicidal pre-emergence action, test C (Table C5); details: visual scoring after about 3 weeks, 100% = plants have died, 0% = like control plants
Outline: as §1

[13] = test system: Echinochloa crus-galli (ECHCG); experiment: Herbicidal post-emergence action (Table B1); details: rated visually after about 3 weeks, 100% = plants have died, 0% = like control plants
Outline: as §2

[14] = test system: Lolium rigidum (LOLRI); experiment: Herbicidal pre-emergence action, test C (Table C2); details: visual scoring after about 3 weeks, 100% = plants have died, 0% = like control plants
Outline: as §1

[15] = test system: Setaria viridis (SETVI); experiment: Herbicidal post-emergence action (Table B4); details: rated visually after about 3 weeks, 100% = plants have died, 0% = like control plants
Outline: as §2

[16] = test system: Stellaria media (STEME); experiment: Herbicidal pre-emergence action, test C (Table C8); details: visual scoring after about 3 weeks, 100% = plants have died, 0% = like control plants
Outline: as §1

| SMILES | Pre-emergence action against Setaria viridis (SETVI) ([1]; dosage 320 g/ha) | Pre-emergence action against Setaria viridis (SETVI) ([1]; dosage 1280 g/ha) | Post-emergence action against Abutilon theophrasti (ABUTH) ([2]; 320 g/ha) | Post-emergence action against Abutilon theophrasti (ABUTH) ([2]; 1280 g/ha) | Pre-emergence action against Echinochloa crus-galli (ECHCG) ([3]; dosage 1280 g/ha) | Post-emergence action against Amaranthus retroflexus (AMARE) ([4]; dosage 320 g/ha) | Post-emergence action against Amaranthus retroflexus (AMARE) ([4]; dosage 1280 g/ha) | Post-emergence action against Stellaria media (STEME) ([5]; dosage 320 g/ha) | Post-emergence action against Stellaria media (STEME) ([5]; dosage 1280 g/ha) | herbicidal activity against the harmful plants of Tables B1-B12 in post-emergence treatment [6] | Post-emergence action against Lolium rigidum (LOLRI) ([7]; 1280 g/ha) | Pre-emergence action against Amaranthus retroflexus (AMARE) ([8]; dosage 320 g/ha) | Pre-emergence action against Amaranthus retroflexus (AMARE) ([8]; dosage 1280 g/ha) | Pre-emergence action against Poa annua (POAAN) ([9]; dosage 320 g/ha) | Pre-emergence action against Poa annua (POAAN) ([9]; dosage 1280 g/ha) | Post-emergence action against Poa annua (POAAN) ([10]; 320 g/ha) | Post-emergence action against Poa annua (POAAN) ([10]; 1280 g/ha) | herbicidal activity against the harmful plants of Tables C1-C12 in pre-emergence treatment [11] | Pre-emergence action against Abutilon theophrasti (ABUTH) ([12]; dosage 1280 g/ha) | Post-emergence action against Echinochloa crus-galli (ECHCG) ([13]; 320 g/ha) | other results |
| --- | --- | --- | --- | --- | --- | --- | --- | --- | --- | --- | --- | --- | --- | --- | --- | --- | --- | --- | --- | --- | --- |
| Fc1cccc(Oc2ccc(Cl)cn2)c1-c1cc(C(F)F)no1 [Example 1-17] | 100% | 100% | 100% | 100% | 100% | 100% | 100% | 100% | 100% | very good herbicidal activity | 100% | 100% | 100% | 100% | 100% | 100% | 100% | very good herbicidal activity | 100% | 100% | Pre-emergence action against Echinochloa crus-galli (ECHCG) ([3]; dosage 320 g/ha): 90%; Post-emergence action against Lolium rigidum (LOLRI) ([7]; 320 g/ha): 100%; Pre-emergence action against Abutilon theophrasti (ABUTH) ([12]; dosage 320 g/ha): 100%; Post-emergence action against Echinochloa crus-galli (ECHCG) ([13]; 1280 g/ha): 100%; Pre-emergence action against Lolium rigidum (LOLRI) ([14]; dosage 320 g/ha): 100%; Pre-emergence action against Lolium rigidum (LOLRI) ([14]; dosage 1280 g/ha): 100%; Post-emergence action against Setaria viridis (SETVI) ([15]; 320 g/ha): 100%; Post-emergence action against Setaria viridis (SETVI) ([15]; 1280 g/ha): 100%; Pre-emergence action against Stellaria media (STEME) ([16]; dosage 320 g/ha): 100%; Pre-emergence action against Stellaria media (STEME) ([16]; dosage 1280 g/ha): 100% |
| FC(F)c1cc(-c2ccccc2Oc2ccc(Cl)cn2)on1 [Example 1-35] | 100% | 100% | 100% | 100% | 100% | 100% | 100% | 100% | 100% | very good herbicidal activity | 100% | 100% | 100% | 100% | 100% | 100% | 100% | very good herbicidal activity | 100% | 100% | Pre-emergence action against Abutilon theophrasti (ABUTH) ([12]; dosage 320 g/ha): 100%; Post-emergence action against Echinochloa crus-galli (ECHCG) ([13]; 1280 g/ha): 100%; Pre-emergence action against Lolium rigidum (LOLRI) ([14]; dosage 1280 g/ha): 90%; Post-emergence action against Setaria viridis (SETVI) ([15]; 1280 g/ha): 100%; Pre-emergence action against Stellaria media (STEME) ([16]; dosage 320 g/ha): 100%; Pre-emergence action against Stellaria media (STEME) ([16]; dosage 1280 g/ha): 100% |
| Fc1cccc(Oc2ccc(Br)cn2)c1-c1cc(C(F)F)no1 [Example 1-40] | 100% | 100% | 100% | 100% | 100% | 100% | 100% | 100% | 100% | very good herbicidal activity | 100% | 100% | 100% | 100% | 100% | 100% | 100% | very good herbicidal activity | 100% | 100% | Pre-emergence action against Echinochloa crus-galli (ECHCG) ([3]; dosage 320 g/ha): 100%; Post-emergence action against Lolium rigidum (LOLRI) ([7]; 320 g/ha): 100%; Pre-emergence action against Abutilon theophrasti (ABUTH) ([12]; dosage 320 g/ha): 100%; Post-emergence action against Echinochloa crus-galli (ECHCG) ([13]; 1280 g/ha): 100%; Pre-emergence action against Lolium rigidum (LOLRI) ([14]; dosage 320 g/ha): 90%; Pre-emergence action against Lolium rigidum (LOLRI) ([14]; dosage 1280 g/ha): 100%; Post-emergence action against Setaria viridis (SETVI) ([15]; 320 g/ha): 100%; Post-emergence action against Setaria viridis (SETVI) ([15]; 1280 g/ha): 100%; Pre-emergence action against Stellaria media (STEME) ([16]; dosage 320 g/ha): 100%; Pre-emergence action against Stellaria media (STEME) ([16]; dosage 1280 g/ha): 100% |
| Fc1cc(Cl)cnc1Oc1ccccc1-c1cc(C(F)F)no1 [Example 1-36] | 100% | 100% | 100% | 100% | 100% | 100% | 100% | 100% | 100% | very good herbicidal activity | 100% | 100% | 100% | 100% | 100% | 100% | 100% | very good herbicidal activity | 100% | 100% | Post-emergence action against Echinochloa crus-galli (ECHCG) ([13]; 1280 g/ha): 100%; Pre-emergence action against Lolium rigidum (LOLRI) ([14]; dosage 1280 g/ha): 90%; Post-emergence action against Setaria viridis (SETVI) ([15]; 1280 g/ha): 100%; Pre-emergence action against Stellaria media (STEME) ([16]; dosage 320 g/ha): 100%; Pre-emergence action against Stellaria media (STEME) ([16]; dosage 1280 g/ha): 100% |
| Cc1cccc(Oc2ncc(Cl)cc2F)c1-c1cc(C(F)F)no1 [Example 1-20] | 100% | 100% | 100% | 100% | 90% | 100% | 100% | 100% | 100% | very good herbicidal activity | 90% | 100% | 100% | 90% | 90% | 100% | 100% | very good herbicidal activity | 100% | 100% | Pre-emergence action against Echinochloa crus-galli (ECHCG) ([3]; dosage 320 g/ha): 90%; Post-emergence action against Lolium rigidum (LOLRI) ([7]; 320 g/ha): 90%; Pre-emergence action against Abutilon theophrasti (ABUTH) ([12]; dosage 320 g/ha): 90%; Post-emergence action against Echinochloa crus-galli (ECHCG) ([13]; 1280 g/ha): 100%; Pre-emergence action against Lolium rigidum (LOLRI) ([14]; dosage 1280 g/ha): 90%; Pre-emergence action against Stellaria media (STEME) ([16]; dosage 320 g/ha): 100%; Pre-emergence action against Stellaria media (STEME) ([16]; dosage 1280 g/ha): 100% |
